Read-outs that look alike come from different tables or passages of the source.
Columns and labels:
[1] = target: full length, heterotrimeric human RPA (fl-RPA) (Homo sapiens (Human), UniProt P27694); experiment: EMSA for inhibition of RPA-DNA binding activity (full length RPA)
Method: Referring to protein purification, full length, heterotrimeric human RPA (fl-RPA) was expressed in E. coli and purified by a three column procedure as previously described (See Patrick S M and Turchi J, Replication Protein A (RPA) Binding to Duplex Cisplatin-damaged DNA Is Mediated through the Generation of Single-stranded DNA. J Biol Chem 1999; 274:14972-8). The DBD-A/B construct was expressed as a SUMO-His6-RPA^181-432 fusion protein. E. coli BL21 (DE3) cells in log growth were induced for 3 hours with 0.5 mM IPTG at 37° C. The cells were lysed in buffer containing 50 mM Tris pH 7.5, 300 mM NaCl, 10% sucrose, 10 mM imidazole, 25 μg/ml lysozyme, 1 μg/ml leupeptin, 1 μg/ml pepstatin and 0.5 mM PMSF. The lysate was loaded onto a Ni-NTA column washed and then incubated overnight with wash buffer containing 3 μg/ml ULP1 protease to cleave the SUMO tag. The cleaved His6-RPA^181-432 was eluted from the Ni-NTA column with elution buffer containing 350 mM imidazole. The His6-RPA was then further purified on a size exclusion column (SEC) to remove the cleaved SUMO tag fragment. The SEC pool was then concentrated and stored at −80° C.
Referring now to Electrophoretic Mobility Shift Assays (“EMSA”), EMSA reactions (20 μL) were performed with 50 nM fl-RPA and 2.5 nM 5′[^32P]-labeled 34-base DNA in buffer containing 20 mM HEPES (pH 7.0), 1 mM DTT, 0.001% NP-40, 100 mM NaCl, 5 mM MgCl2 and 50 μg/ml bovine serum albumin (BSA). Chemical compounds, either purchased from ChemDiv or synthesized in the laboratory, were suspended in DMSO and titrated as detailed in each figure. The DMSO concentration in the reaction mixture was kept constant at or below 5%. RPA was incubated with inhibitor or DMSO control in reaction buffer for 30 minutes before the addition of DNA. Reactions were incubated for 5 minutes at room temperature and products separated via 6% native polyacrylamide gel electrophoresis. The bound and unbound fractions were then quantified by phosphor-imager analysis using ImageQuant software (Molecular Dynamics, CA) and IC50 values calculated by non-linear regression using SigmPlot (Sysat). For EMSA reactions with RPA DBD-A/B, 150 nM DBD-A/B was used and electrophoresis was performed at 4° C. All other conditions were identical to those described for the full length RPA.

A2780 cells = experiment: Assessment of synergy via combination index (Chou-Talalay), colony formation; type: cell-based; settings: A2780, at 0.5 or higher fraction of cells affected
Method: (§1) Referring now to clonogenic survival assays, cells were plated in a 6 well (100,000 cells/well) or 24 well (25,000 cells/well) plate, incubated for at least 18 hours and then treated with Pt/etoposide and/or RPA inhibitors. After 48 hours of treatment, the cells were re-plated in 10 cm dishes (500-1000 cells/dish) and incubated for 8-10 days to allow colony formation. Plates were then washed with PBS, fixed with glutaraldehyde (Fisher Scientific) and stained with crystal violet (Acros Organics). The colonies were then counted using an Acolyte Synbiosis colony counter, viability determined versus vehicle controls which were plotted versus drug concentration.
Referring now to Assessment of Synergy via Combination Index, in the combination index studies, the A2780 cells were treated with RPA inhibitor and Pt/etoposide alone as well as the combination of both—the inhibitor and the DNA damaging chemotherapeutic agent. The range of treatment was dependent on the IC50 of each inhibitor/drug. If the IC50 was X, then the cells were treated at a range of X/4 to 3X concentration in a colony formation assay. […]

A2780 EOC cell line = experiment: Clonogenic survival assay in A2780 cells; type: cell-based; settings: 48 hours treatment, 1-200 μM, read-out: Cellular IC50
Method: Referring now to cell culture, A2780 cells and A2780/R cells were purchased from Sigma. All other cell lines were from ATCC and routinely tested for mycoplasma contamination. Cells were maintained in RPMI media supplemented with 10% FBS (Atlanta Biological), penicillin and streptomycin. Cultures were incubated at 37° C. in 5% CO2 and sub-cultured 2-3 times per week.
as §1

[2] = Preliminary pharmacokinetic analysis; type: in vivo, mice
[3] = Safety and tolerability (body weight) in naive NOD/SCID mice; type: in vivo
Method: Referring now to in vivo analysis of TDRL-551, non-obese diabetic/severe combined immunodeficient mice (NOD/SCID) were obtained from The Jackson Laboratory. All animal studies were conducted under the guidelines of the NIH and were approved by the Institutional Animal Care and Use Committee of Indiana University School of Medicine. Animals were maintained under pathogen-free conditions and a 12-hour light-dark cycle. The safety and tolerability of TDRL-551 was assessed in naïve NOD/SCID mice. Mice were treated IP with increasing concentrations of TDRL-551 in a formulation consisting of 20% DMSO, 10% Tween 80, 70% PBS. Based on preliminary PK analysis and a half-life of ˜7 hours (data not shown) we administered 3 doses per week for two weeks and measured body weight every other day.

[4] = EMSA, RPA incubated with compounds at 1-125 μM, read-out: In vitro IC50
[5] = compounds titrated at 1-125 μM, read-out: IC50 calculated from EMSA reactions

full length, heterotrimeric human RPA (fl-RPA), sequence (P27694 whole entry, the tested form may be a part): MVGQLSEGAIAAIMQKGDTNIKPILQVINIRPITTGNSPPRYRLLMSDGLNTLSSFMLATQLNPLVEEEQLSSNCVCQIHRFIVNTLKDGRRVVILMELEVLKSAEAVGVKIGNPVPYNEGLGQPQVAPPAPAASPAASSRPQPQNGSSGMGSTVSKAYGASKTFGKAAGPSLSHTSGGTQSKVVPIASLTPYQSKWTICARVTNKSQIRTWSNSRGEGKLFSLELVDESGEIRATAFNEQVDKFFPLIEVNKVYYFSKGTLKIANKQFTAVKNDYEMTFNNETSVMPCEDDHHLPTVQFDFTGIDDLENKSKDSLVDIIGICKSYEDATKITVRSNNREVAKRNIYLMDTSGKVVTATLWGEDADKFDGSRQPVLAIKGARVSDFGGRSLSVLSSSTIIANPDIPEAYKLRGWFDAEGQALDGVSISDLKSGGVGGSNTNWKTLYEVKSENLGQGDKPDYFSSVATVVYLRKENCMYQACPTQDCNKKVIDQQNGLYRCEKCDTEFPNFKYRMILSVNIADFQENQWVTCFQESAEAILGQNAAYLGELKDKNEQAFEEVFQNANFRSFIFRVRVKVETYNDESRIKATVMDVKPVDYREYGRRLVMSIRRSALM
full length, heterotrimeric human RPA (fl-RPA), sequence (P15927 whole entry partner, the tested form may be a part): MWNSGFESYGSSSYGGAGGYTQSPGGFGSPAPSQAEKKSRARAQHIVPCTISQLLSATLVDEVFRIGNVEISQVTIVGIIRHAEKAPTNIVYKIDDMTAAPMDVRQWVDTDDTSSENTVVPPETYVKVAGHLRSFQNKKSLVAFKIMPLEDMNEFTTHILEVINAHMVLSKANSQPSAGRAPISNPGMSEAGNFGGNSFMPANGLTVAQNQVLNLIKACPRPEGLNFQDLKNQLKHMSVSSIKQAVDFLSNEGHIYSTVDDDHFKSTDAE
full length, heterotrimeric human RPA (fl-RPA), sequence (P35244 whole entry partner, the tested form may be a part): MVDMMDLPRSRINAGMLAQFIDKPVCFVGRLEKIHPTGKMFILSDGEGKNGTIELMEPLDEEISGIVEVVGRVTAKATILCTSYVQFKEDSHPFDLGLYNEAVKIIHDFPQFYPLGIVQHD

Compound	IC50 [1, 4]	IC50 [1, 5]	other results
COc1ccc2cc(C3CC(c4ccc(OC)c(OC)c4)=NN3C(=O)CCC(=O)O)c(Cl)nc2c1 (centres unmarked) [h]	–	> 100 µM	–
CCOc1ccc2cc(C3CC(c4ccc(Br)cc4)=NN3C(=O)CCCC(=O)O)c(Cl)nc2c1 (centres unmarked) [d]	–	25 µM	–
CCOc1ccc2cc(C3CC(c4ccc(I)cc4)=NN3C(=O)CCCC(=O)O)c(Cl)nc2c1 (centres unmarked)	–	–	combination index (CI) with cisplatin (A2780 cells): < 1; IC50 (A2780 EOC cell line; Homo sapiens): 25 µM; half-life ([2]; NOD/SCID, mouse, plasma, preliminary PK analysis): ~7 h; plasma concentration achieved ([2]; initial pharmacokinetic analysis): > 20 µM; adverse effects / loss of weight ([3]; co-treatment with carboplatin, up to 200 mg/kg): no adverse effects or loss of weight; body weight change ([3]; intraperitoneal administration up to 200 mg/kg, 3 doses per week for two weeks): no weight loss observed; body weight change ([3]; intraperitoneal, 300 mg/kg): slight decrease in body weight; loss of weight ([3]; intraperitoneal, 300 mg/kg): ≤ 10%
CCOc1ccc2cc(C3CC(c4ccc(OC(F)(F)F)cc4)=NN3C(=O)CCCCC(=O)O)c(Cl)nc2c1 (centres unmarked) [TDRL-557]	30 µM	–	–
COc1ccc2cc(C3CC(c4ccc(Cl)cc4)=NN3C(=O)CCC(=O)O)c(Cl)nc2c1 (centres unmarked) [f]	–	75 µM	–
COc1ccc2cc(C3CC(c4ccc(Cl)cc4)=NN3C(=O)CCCC(=O)O)c(Cl)nc2c1 (centres unmarked) [j]	–	60 µM	–
COc1ccc(C2=NN(C(=O)CCCC(=O)O)C(c3ccccc3OC)C2)cc1 (centres unmarked) [c]	–	> 100 µM	–
COc1ccc(C2=NN(C(=O)CCC(=O)O)C(c3cc4ccc(OC)cc4nc3Cl)C2)cc1 (centres unmarked) [g]	–	> 100 µM	–
CC(C)Oc1ccc2cc(C3CC(c4ccc(Br)cc4)=NN3C(=O)CCCCC(=O)O)c(Cl)nc2c1 (centres unmarked) [TDRL-556]	43 µM	–	–
CCOc1ccc2cc(C3CC(c4ccc(Br)cc4)=NN3C(=O)CCCCC(=O)O)c(Cl)nc2c1 (centres unmarked) [TDRL-543]	25 µM	–	IC50 (A2780 EOC cell line): 50 µM
CCOc1ccc2cc(C3CC(c4ccc(I)cc4)=NN3C(=O)CCCCCC(=O)O)c(Cl)nc2c1 (centres unmarked) [NG-01-25]	10 µM	–	–
COc1ccc2cc(C3CC(c4ccc(OC)c(OC)c4)=NN3C(=O)CCCC(=O)O)c(Cl)nc2c1 (centres unmarked) [k]	–	> 100 µM	–
CCOc1ccc2cc(C3CC(c4ccc(I)cc4)=NN3c3cccc(C(=O)O)c3)c(Cl)nc2c1 (centres unmarked) [NG-01-02]	75.5 µM	–	–
COc1ccc(C2CC(c3ccc(C)cc3)=NN2C(=O)CCCC(=O)O)cc1OC (centres unmarked) [b]	–	> 100 µM	–
CCOc1ccc2cc(C3CC(c4ccc(Br)nc4)=NN3C(=O)CCC(=O)O)c(Cl)nc2c1 (centres unmarked) [TDRL-617]	> 100 µM	–	–
CCOc1ccc2cc(C3CC(c4ccc(I)cc4)=NN3c3ccc(C(=O)O)cc3)c(Cl)nc2c1 (centres unmarked) [NG-01-04]	> 100 µM	–	–
CCOc1ccc2cc(C3CC(c4ccc(C)cc4)=NN3C(=O)CCC(=O)O)c(Cl)nc2c1 (centres unmarked) [e]	–	80 µM	–
COc1ccc2cc(C3CC(c4ccc(F)cc4)=NN3C(=O)CCCC(=O)O)c(Cl)nc2c1 (centres unmarked) [TDRL-540]	> 100 µM	–	–
O=C(O)CCCC(=O)N1N=C(c2ccccc2)CC1c1cc2cc3c(cc2nc1Cl)OCCO3 (centres unmarked) [l]	–	> 100 µM	–

Second part, led by results:

IC50 [1, 4]	IC50 [1, 5]	Compound	other results
> 100 µM	–	COc1ccc2cc(C3CC(c4ccc(F)cc4)=NN3C(=O)CCCCC(=O)O)c(Cl)nc2c1 (centres unmarked) [TDRL-539]	–
7 µM	–	CCOc1ccc2cc(C3CC(c4ccc(I)cc4)=NN3C(=O)CCCCC(=O)O)c(Cl)nc2c1 (centres unmarked) [NG-01-24]	–
–	> 100 µM	COc1ccc2cc(C3CC(c4ccc(C)cc4)=NN3C(=O)CCCC(=O)O)c(Cl)nc2c1 (centres unmarked) [i]	–
35 µM	–	COc1ccc2cc(C3CC(c4ccc(Br)cc4)=NN3C(=O)CCCCC(=O)O)c(Cl)nc2c1 (centres unmarked) [TDRL-534]	–
15 µM	–	CCOc1ccc2cc(C3CC(c4cccc(I)c4)=NN3C(=O)CCCCC(=O)O)c(Cl)nc2c1 (centres unmarked) [TDRL-652]	–
> 50 µM	–	COc1ccc2cc(C3CC(c4ccc(Br)cc4)=NN3C(=O)CCCC(=O)O)c(Cl)nc2c1 (centres unmarked) [TDRL-533]	IC50 (A2780 EOC cell line): > 50 µM
–	> 100 µM	COc1ccc(C2CC(c3ccccc3)=NN2C(=O)CCCC(=O)O)cc1OC (centres unmarked) [a]	–

From patent US10774063B2, “Materials and method for inhibiting replication protein A and uses thereof” (INDIANA UNIVERSITY RESEARCH AND TECHNOLOGY CORPORATION, priority 2014, dated 2020)
